# Measurements published in patent US20210380548A1, “Fused [1,2,4]Thiadiazine Derivatives Which Act as KAT Inhibitors of the MYST Family” (CTxT Pty Limited, priority 2017, published 2021).
# Assays:
# TIP60-KAT5 [1] = biological target: T1, TIP60-KAT5 (Homo sapiens, UniProt Q92993); test: Acetyltransferase biochemical assay (AlphaScreen), KAT5; conditions: Table 1 (TIP60-KAT5); 0.4 μM Acetyl coenzyme A, histone H4, 10 nM enzyme
# T1 construct: encoding amino acid residues 2 to 461 (Uniprot Q92993-2) of human KAT5 isoform; made in house; host or cells: E. coli BL21 DE3
# T1 sequence (Q92993 2-461 isoform Q92993-2): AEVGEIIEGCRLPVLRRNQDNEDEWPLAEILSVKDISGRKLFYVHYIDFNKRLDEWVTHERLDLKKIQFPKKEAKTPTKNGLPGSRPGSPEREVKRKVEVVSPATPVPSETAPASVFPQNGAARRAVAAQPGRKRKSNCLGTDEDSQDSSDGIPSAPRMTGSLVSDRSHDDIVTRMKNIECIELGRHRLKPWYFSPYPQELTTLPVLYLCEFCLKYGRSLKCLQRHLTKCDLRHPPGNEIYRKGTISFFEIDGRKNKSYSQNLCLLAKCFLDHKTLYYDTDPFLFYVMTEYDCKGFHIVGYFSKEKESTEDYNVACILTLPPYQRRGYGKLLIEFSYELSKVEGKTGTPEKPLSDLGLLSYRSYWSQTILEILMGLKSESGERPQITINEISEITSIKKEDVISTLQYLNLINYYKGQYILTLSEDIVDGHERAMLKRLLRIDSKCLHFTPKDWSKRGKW
# MOZ-KAT6A = biological target: T2, MOZ-KAT6A (Homo sapiens, UniProt Q92794, A567V); test: Revised Acetyltransferase Biochemical Assay, KAT6A; conditions: Table 8 (MOZ-KAT6A), 1 μM Acetyl coenzyme A
# T2 construct: encoding amino acid residues 507 to 778 (Uniprot Q92794-1) of human KAT6A; made in house; host or cells: E. coli BL21 DE3
# T2 sequence (Q92794 507-778 A567V limits assumed): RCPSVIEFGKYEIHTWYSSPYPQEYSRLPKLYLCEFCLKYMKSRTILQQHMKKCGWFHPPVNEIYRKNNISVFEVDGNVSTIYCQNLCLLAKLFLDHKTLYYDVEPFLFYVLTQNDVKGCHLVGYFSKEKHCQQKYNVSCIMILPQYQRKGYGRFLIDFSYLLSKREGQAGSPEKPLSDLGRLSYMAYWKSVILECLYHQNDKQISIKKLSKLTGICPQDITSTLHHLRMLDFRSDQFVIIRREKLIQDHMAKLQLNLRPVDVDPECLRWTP
# HBO-KAT7 [2] = biological target: T3, HBO-KAT7 (Homo sapiens, UniProt O95251); test: Revised Acetyltransferase Biochemical Assay, KAT7; conditions: Table 9 (HBO-KAT7), 1 μM Acetyl coenzyme A
# T3 construct: encoding amino acid residues 325 to 611 (Uniprot 095251-1) of human KAT7; made in house; host or cells: E. coli BL21 DE3 RIL
# T3 sequence (O95251 with tags, fused parts or gaps): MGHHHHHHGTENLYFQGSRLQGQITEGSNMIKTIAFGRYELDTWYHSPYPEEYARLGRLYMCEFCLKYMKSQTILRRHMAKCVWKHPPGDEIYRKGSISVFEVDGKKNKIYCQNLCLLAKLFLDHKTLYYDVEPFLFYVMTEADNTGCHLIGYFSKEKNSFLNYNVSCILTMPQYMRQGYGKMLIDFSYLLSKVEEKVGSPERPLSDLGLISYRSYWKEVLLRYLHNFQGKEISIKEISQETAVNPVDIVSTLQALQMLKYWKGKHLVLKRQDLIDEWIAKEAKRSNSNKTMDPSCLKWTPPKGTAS
# TIP60-KAT5 [3] = biological target: T1, TIP60-KAT5; test: Revised Acetyltransferase Biochemical Assay, KAT5; conditions: 10 nM KAT5, 1 μM AcCoA, 100 nM histone H4, 90 min
# HBO-KAT7 [4] = biological target: T3, HBO-KAT7; test: Acetyltransferase biochemical assay (AlphaScreen), KAT7; conditions: Table 3 (HBO-KAT7); 0.4 μM Acetyl coenzyme A, histone H3.1, 40 nM enzyme
Structure (SMILES),IC50 (TIP60-KAT5 [1]),IC50 (MOZ-KAT6A),IC50 (HBO-KAT7 [2]),IC50 (TIP60-KAT5 [3]),IC50 (HBO-KAT7 [4])
"Cc1ncccc1-c1ccccc1CCNC(=O)C1=Nc2ccccc2S(=O)(=O)N1 [Example 6, N-(2-(2-Methylpyridin-3-yl)phenethyl)-2H-benzo[e][1,2,4]thiadiazine-3-carboxamide 1,1-dioxide]",90.1 µM,18.7 µM,21.3 µM,> 125 µM,–
"O=C(NCCc1ccccc1C(=O)O)C1=Nc2ccccc2S(=O)(=O)N1 [Example 30, 2-(2-(1,1-Dioxido-2H-benzo[e][1,2,4]thiadiazine-3-carboxamido)ethyl)benzoic Acid]",112 µM,–,–,–,–
"Cn1cc(-c2ccccc2CCNC(=O)C2=Nc3ccccc3S(=O)(=O)N2)cn1 [Example 40, N-(2-(1-methyl-1H-pyrazol-4-yl)phenethyl)-2H-benzo[e][1,2,4]thiadiazine-3-carboxamide 1,1-dioxide]",> 125 µM,–,–,–,9.45 µM
"C#Cc1ccc2c(c1)S(=O)(=O)NC(C(=O)NCC(c1ccccc1)c1ncco1)=N2 (stereo not shown) [Example 42, 7-ethynyl-N-(2-(oxazol-2-yl)-2-phenylethyl)-2H-benzo[e][1,2,4]thiadiazine-3-carboxamide 1,1-dioxide]",0.642 µM,–,–,–,0.255 µM
"O=C(NCC(C(=O)N1CCCC1)c1ccccc1)C1=Nc2ccccc2S(=O)(=O)N1 (stereo not shown) [Example 44, N-(3-oxo-2-phenyl-3-(pyrrolidin-1-yl)propyl)-2H-benzo[e][1,2,4]thiadiazine-3-carboxamide 1,1-dioxide]",> 125 µM,–,–,–,–
"CC(C)OC(=O)NC(CNC(=O)C1=Nc2ccccc2S(=O)(=O)N1)c1ccccc1 (stereo not shown) [Example 50, Isopropyl (2-(1,1-dioxido-2H-benzo[e][1,2,4]thiadiazine-3-carboxamido)-1-phenylethyl) carbamate]",–,6.19 µM,49.1 µM,> 125 µM,–
"COC(CNC(=O)C1=Nc2ccc(I)cc2S(=O)(=O)N1)c1ccccc1OC(F)F (stereo not shown) [Example 58, N-(2-(2-(difluoromethoxy)phenyl)-2-methoxyethyl)-7-iodo-2H-benzo[e][1,2,4]thiadiazine-3-carboxamide 1,1-dioxide]",2.58 µM,–,–,–,1.59 µM
"CCOC(=O)C(CNC(=O)C1=Nc2ccccc2S(=O)(=O)N1)c1ccccc1 (stereo not shown) [Example 73, ethyl 3-(1,1-dioxido-2H-benzo[e][1,2,4]thiadiazine-3-carboxamido)-2-phenylpropanoate]",10.1 µM,–,–,–,26.4 µM
O=C(NCC(O)c1ccccc1F)C1=Nc2ccc(I)cc2S(=O)(=O)N1 (stereo not shown) [Example 89],2.06 µM,–,–,–,3.37 µM
O=C(NCCc1ccccc1O)C1=Nc2ccc(I)cc2S(=O)(=O)N1 [Example 90],0.96 µM,–,–,–,0.915 µM
COc1ccccc1C(O)CNC(=O)C1=Nc2ccc(I)cc2S(=O)(=O)N1 (stereo not shown) [Example 94],2.82 µM,–,–,–,3.8 µM
O=C(NCC(O)c1ccccc1C(F)(F)F)C1=Nc2ccc(I)cc2S(=O)(=O)N1 (stereo not shown) [Example 95],5.18 µM,–,–,–,4.22 µM
O=C(NCCc1ccc(CO)cc1)C1=Nc2ccc(I)cc2S(=O)(=O)N1 [Example 103],> 125 µM,–,–,–,> 125 µM
O=C(NCCc1ccncc1)C1=Nc2ccc(I)cc2S(=O)(=O)N1 [Example 104],> 125 µM,–,–,–,> 125 µM
O=C(NCCc1ccc(O)cc1)C1=Nc2ccc(I)cc2S(=O)(=O)N1 [Example 105],46.3 µM,–,–,–,> 125 µM
COc1ccc(CCNC(=O)C2=Nc3ccc(I)cc3S(=O)(=O)N2)cc1 [Example 106],> 125 µM,–,–,–,> 125 µM
"O=C(NCCc1ccccc1CO)C1=Nc2ccc(I)cc2S(=O)(=O)N1 [Example 109, N-(2-(hydroxymethyl)phenethyl)-7-iodo-2H-benzo[e][1,2,4]thiadiazine-3-carboxamide 1,1-dioxide]",3.42 µM,–,–,–,5.95 µM

# Results, then the molecule that gave them:
IC50 (TIP60-KAT5 [1]),IC50 (MOZ-KAT6A),IC50 (HBO-KAT7 [2]),IC50 (TIP60-KAT5 [3]),IC50 (HBO-KAT7 [4]),Structure (SMILES)
3.17 µM,1.02 µM,3.59 µM,1.38 µM,–,"COc1ccccc1C(O)CNC(=O)C1=Nc2ccc(I)cc2S(=O)(=O)N1 (single isomer, unassigned) [Example 150]"
75.6 µM,–,–,–,101 µM,CNC(=O)c1ccccc1CCNC(=O)C1=Nc2ccc(I)cc2S(=O)(=O)N1 [Example 110]
16.6 µM,–,–,–,81.4 µM,CN(C)C(=O)c1ccccc1CCNC(=O)C1=Nc2ccc(I)cc2S(=O)(=O)N1 [Example 111]
5.26 µM,–,–,–,18.5 µM,O=C(NCC(O)c1ccccc1OCc1ccccc1)C1=Nc2ccc(I)cc2S(=O)(=O)N1 (stereo not shown) [Example 119]
40.8 µM,–,–,–,47 µM,COc1cccc(C(O)CNC(=O)C2=Nc3ccc(I)cc3S(=O)(=O)N2)c1 (stereo not shown) [Example 121]
5.01 µM,–,–,–,1.72 µM,O=C(NCC(F)c1ccccc1)C1=Nc2ccc(I)cc2S(=O)(=O)N1 (stereo not shown) [Example 123]
24.6 µM,–,–,–,18.7 µM,O=C(NCC(O)c1cccc(Cl)c1)C1=Nc2ccc(I)cc2S(=O)(=O)N1 (stereo not shown) [Example 124]
> 125 µM,–,–,–,> 125 µM,O=C(NCC(O)c1ccc(Cl)cc1)C1=Nc2ccc(I)cc2S(=O)(=O)N1 (stereo not shown) [Example 125]
31.3 µM,–,–,–,12.4 µM,O=C(NCC(O)c1cccc(F)c1)C1=Nc2ccc(I)cc2S(=O)(=O)N1 (stereo not shown) [Example 126]
–,0.595 µM,9.52 µM,2.68 µM,–,"O=C(NCCc1ccccc1C(=O)O)C1=Nc2ccc(I)cc2S(=O)(=O)N1 [Example 155, 2-(2-(7-Iodo-1,1-dioxido-2H-benzo[e][1,2,4]thiadiazine-3-carboxamido)ethyl)benzoic Acid]"
–,0.042 µM,0.264 µM,0.994 µM,–,O=C(NCC(c1ccccc1)c1nnc(C(F)F)o1)C1=Nc2ccc(I)cc2S(=O)(=O)N1 (stereo not shown) [Example 185]
–,0.613 µM,2.3 µM,11.1 µM,–,O=C(NCCc1ccccc1-n1ccnc1)C1=Nc2ccc(I)cc2S(=O)(=O)N1 [Example 192]
–,5.56 µM,26 µM,≥ 125 µM,–,COCc1ccccc1C(CNC(=O)C1=Nc2ccccc2S(=O)(=O)N1)c1ncco1 (stereo not shown) [Example 194]
–,0.209 µM,2.21 µM,1.85 µM,–,O=C(NCCc1ccccc1-c1n[nH]c(=O)o1)C1=Nc2ccccc2S(=O)(=O)N1 [Example 195]
–,9.8 µM,> 125 µM,> 125 µM,–,O=C(NCC(O)C1CCCCC1)C1=Nc2ccc(Cl)cc2S(=O)(=O)N1 (stereo not shown) [Example 200]
–,0.97 µM,2.73 µM,30 µM,–,O=C(NCC1(c2ccccc2)CCCC1)C1=Nc2ccccc2S(=O)(=O)N1 [Example 205]
–,1.6 µM,4.51 µM,13.3 µM,–,"CC(N)c1ccc2c(c1)S(=O)(=O)NC(C(=O)NCC(c1ccccc1)c1ncco1)=N2 (stereo not shown) [Example 208, 7-(1-Aminoethyl)-N-(2-(oxazol-2-yl)-2-phenylethyl)-2H-benzo[e][1,2,4]thiadiazine-3-carboxamide 1,1-dioxide]"
–,0.378 µM,1.67 µM,8.45 µM,–,"CNC(C)c1ccc2c(c1)S(=O)(=O)NC(C(=O)NCC(c1ccccc1)c1ncco1)=N2 (stereo not shown) [Example 209, 7-(1-(Methylamino)ethyl)-N-(2-(oxazol-2-yl)-2-phenylethyl)-2H-benzo[e][1,2,4]thiadiazine-3-carboxamide 1,1-dioxide]"
–,0.303 µM,1.12 µM,10.9 µM,–,"CC(NS(C)(=O)=O)c1ccc2c(c1)S(=O)(=O)NC(C(=O)NCC(c1ccccc1)c1ncco1)=N2 (stereo not shown) [Example 210, 7-(1-(Methylsulfonamido)ethyl)-N-(2-(oxazol-2-yl)-2-phenylethyl)-2H-benzo[e][1,2,4]thiadiazine-3-carboxamide 1,1-dioxide]"
–,2.18 µM,6.07 µM,24.7 µM,–,"CC(=O)NC(C)c1ccc2c(c1)S(=O)(=O)NC(C(=O)NCC(c1ccccc1)c1ncco1)=N2 (stereo not shown) [Example 211, 7-(1-Acetamidoethyl)-N-(2-(oxazol-2-yl)-2-phenylethyl)-2H-benzo[e][1,2,4]thiadiazine-3-carboxamide 1,1-dioxide]"
–,0.216 µM,1.01 µM,3.32 µM,–,"COc1ccc2c(c1)S(=O)(=O)NC(C(=O)NCC(c1cccc(Cl)c1)c1ncco1)=N2 (stereo not shown) [Example 223, N-(2-(3-Chlorophenyl)-2-(oxazol-2-yl)ethyl)-7-methoxy-2H-benzo[e][1,2,4]thiadiazine-3-carboxamide 1,1-dioxide]"
–,0.165 µM,0.204 µM,9.01 µM,–,"O=C(NCC(c1cccc(Cl)c1)c1ncco1)C1=Nc2ccc(O)cc2S(=O)(=O)N1 (stereo not shown) [Example 224, N-(2-(3-chlorophenyl)-2-(oxazol-2-yl)ethyl)-7-hydroxy-2H-benzo[e][1,2,4]thiadiazine-3-carboxamide 1,1-dioxide]"
–,0.761 µM,2.3 µM,4.9 µM,–,"NC(=O)c1ccccc1CCNC(=O)C1=Nc2ccc(I)cc2S(=O)(=O)N1 [Example 230, N-(2-Carbamoylphenethyl)-7-iodo-2H-benzo[e][1,2,4]thiadiazine-3-carboxamide 1,1-dioxide]"
–,2.77 µM,33 µM,123 µM,–,"O=C(NCC1(c2ncco2)CCCC1)C1=Nc2ccccc2S(=O)(=O)N1 [Example 242, N-((1-(oxazol-2-yl)cyclopentyl)methyl)-2H-benzo[e][1,2,4]thiadiazine-3-carboxamide 1,1-dioxide]"
